From US10206394B2, “Herbicidal compounds” (Syngenta Participations AG, priority 2014, dated 2019) come the findings set out here.

Read-outs that look alike come from different tables or passages of the source.

Common to all, as to experiment: Glasshouse assay for herbicidal activity (pre- and post-emergence), percentage phytotoxicity
Holding throughout (format): in vivo

For one test, the system named is Avena fatua (AVEFA). The settings on record: Avena fatua. In outline: (§1)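 Visually rated damage, 0–100%. PRE spray 1 d after sowing, scored 20 DAA; POST spray ~12 d, scored 15 DAA. Glasshouse at 65% humidity, 16 h day.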
The subject of test [1] is Alopecurus myosuroides (ALOMY). The settings on record: Alopecurus myosuroides. In outline:
as §1

Test [2] relates to Echinochloa crus-galli (ECHCG). To be noted: Echinochloa crus-galli. In outline:
as §1

In a further test the test system is Lolium perenne (LOLPE). The settings on record: Lolium perenne. In outline: as §1
Where [3] appears, read: post-emergence, 360 h, POST-emergence, rate 250 g/ha, visual score 15 DAA (100%=total damage, 0%=no damage), read-out: Post-emergence herbicidal activity (percentage phytotoxicity) AVEFA POST.
The mark [4] stands for this setting: pre-emergence, 480 h, PRE-emergence, rate 250 g/ha, visual score 20 DAA (100%=total damage, 0%=no damage), read-out: Pre-emergence herbicidal activity (percentage phytotoxicity) AVEFA PRE.
Where [5] appears, read: post-emergence, 360 h, POST-emergence, rate 250 g/ha, visual score 15 DAA (100%=total damage, 0%=no damage), read-out: Post-emergence herbicidal activity (percentage phytotoxicity) ALOMY POST.
Setting [6] is: pre-emergence, 480 h, PRE-emergence, rate 250 g/ha, visual score 20 DAA (100%=total damage, 0%=no damage), read-out: Pre-emergence herbicidal activity (percentage phytotoxicity) ALOMY PRE.
Setting [7] is: post-emergence, 360 h, POST-emergence, rate 250 g/ha, visual score 15 DAA (100%=total damage, 0%=no damage), read-out: Post-emergence herbicidal activity (percentage phytotoxicity) ECHCG POST.
[8] abbreviates: pre-emergence, 480 h, PRE-emergence, rate 250 g/ha, visual score 20 DAA (100%=total damage, 0%=no damage), read-out: Pre-emergence herbicidal activity (percentage phytotoxicity) ECHCG PRE.
The mark [9] stands for this setting: post-emergence, 360 h, POST-emergence, rate 250 g/ha, visual score 15 DAA (100%=total damage, 0%=no damage), read-out: Post-emergence herbicidal activity (percentage phytotoxicity) LOLPE POST.
Where [10] appears, read: pre-emergence, 480 h, PRE-emergence, rate 250 g/ha, visual score 20 DAA (100%=total damage, 0%=no damage), read-out: Pre-emergence herbicidal activity (percentage phytotoxicity) LOLPE PRE.
Setting [11] is: post-emergence, 360 h, 250 g/ha, post-emergence, 15 DAA, visual assessment (100%=total damage, 0%=no damage), read-out: Post-emergence herbicidal activity (percentage phytotoxicity) AVEFA POST.
Where [12] appears, read: pre-emergence, 480 h, 250 g/ha, pre-emergence, 20 DAA, visual assessment (100%=total damage, 0%=no damage), read-out: Pre-emergence herbicidal activity (percentage phytotoxicity) AVEFA PRE.
The mark [13] stands for this setting: post-emergence, 360 h, 250 g/ha, post-emergence, 15 DAA, visual assessment (100%=total damage, 0%=no damage), read-out: Post-emergence herbicidal activity (percentage phytotoxicity) ALOMY POST.
Setting [14] is: pre-emergence, 480 h, 250 g/ha, pre-emergence, 20 DAA, visual assessment (100%=total damage, 0%=no damage), read-out: Pre-emergence herbicidal activity (percentage phytotoxicity) ALOMY PRE.
Where [15] appears, read: post-emergence, 360 h, 250 g/ha, post-emergence, 15 DAA, visual assessment (100%=total damage, 0%=no damage), read-out: Post-emergence herbicidal activity (percentage phytotoxicity) ECHCG POST.
[16] abbreviates: pre-emergence, 480 h, 250 g/ha, pre-emergence, 20 DAA, visual assessment (100%=total damage, 0%=no damage), read-out: Pre-emergence herbicidal activity (percentage phytotoxicity) ECHCG PRE.
[17] abbreviates: post-emergence, 360 h, 250 g/ha, post-emergence, 15 DAA, visual assessment (100%=total damage, 0%=no damage), read-out: Post-emergence herbicidal activity (percentage phytotoxicity) LOLPE POST.
[18] abbreviates: pre-emergence, 480 h, 250 g/ha, pre-emergence, 20 DAA, visual assessment (100%=total damage, 0%=no damage), read-out: Pre-emergence herbicidal activity (percentage phytotoxicity) LOLPE PRE.
Setting [19] is: post-emergence, 360 h, Rate 250 g/ha, post-emergence, assessed visually 15 DAA, 100%=total damage, 0%=no damage, read-out: Post-emergence herbicidal activity (percentage phytotoxicity) AVEFA POST.
[20] abbreviates: pre-emergence, 480 h, Rate 250 g/ha, pre-emergence, assessed visually 20 DAA, 100%=total damage, 0%=no damage, read-out: Pre-emergence herbicidal activity (percentage phytotoxicity) AVEFA PRE.
The mark [21] stands for this setting: post-emergence, 360 h, Rate 250 g/ha, post-emergence, assessed visually 15 DAA, 100%=total damage, 0%=no damage, read-out: Post-emergence herbicidal activity (percentage phytotoxicity) ALOMY POST.
[22] abbreviates: pre-emergence, 480 h, Rate 250 g/ha, pre-emergence, assessed visually 20 DAA, 100%=total damage, 0%=no damage, read-out: Pre-emergence herbicidal activity (percentage phytotoxicity) ALOMY PRE.
[23] abbreviates: post-emergence, 360 h, Rate 250 g/ha, post-emergence, assessed visually 15 DAA, 100%=total damage, 0%=no damage, read-out: Post-emergence herbicidal activity (percentage phytotoxicity) ECHCG POST.
Setting [24] is: pre-emergence, 480 h, Rate 250 g/ha, pre-emergence, assessed visually 20 DAA, 100%=total damage, 0%=no damage, read-out: Pre-emergence herbicidal activity (percentage phytotoxicity) ECHCG PRE.
The mark [25] stands for this setting: post-emergence, 360 h, Rate 250 g/ha, post-emergence, assessed visually 15 DAA, 100%=total damage, 0%=no damage, read-out: Post-emergence herbicidal activity (percentage phytotoxicity) LOLPE POST.
[26] abbreviates: pre-emergence, 480 h, Rate 250 g/ha, pre-emergence, assessed visually 20 DAA, 100%=total damage, 0%=no damage, read-out: Pre-emergence herbicidal activity (percentage phytotoxicity) LOLPE PRE.

In the case of `C/C=C/c1cc(C)c(C2C(=O)CC(CC(=O)NCC3CC3)C2=O)c(C)c1` (centres unmarked) [Compound B247], the pest or weed control at 250 g/ha with Avena fatua (AVEFA) (setting [3]) turned out to be 100%; in the test on Avena fatua (AVEFA) (setting [4]) it was 80%; in test [1] (setting [5]), 100%; in test [1] (setting [6]) it was 90%; in test [2] (setting [7]), 100%; in test [2] (setting [8]), 60%. For the same molecule, the figures for the pest or weed control at 250 g/ha in the test with Lolium perenne (LOLPE) (setting [9]) and with Lolium perenne (LOLPE) (setting [10]) were 100% and 80%, respectively.

Consider `Cc1cc(C)c(C2C(=O)CC(CC(=O)NC3(C4CC4)CC3)C2=O)c(C)c1` (centres unmarked) [Compound B78], for which the pest or weed control at 250 g/ha amounted to 80% in the test with Avena fatua (AVEFA) (setting [11]); 40% in the test with Avena fatua (AVEFA) (setting [12]); 80% in test [1] (setting [13]); 80% in test [1] (setting [14]); 90% in test [2] (setting [15]); 90% in test [2] (setting [16]). The pest or weed control at 250 g/ha in the test with Lolium perenne (LOLPE) (setting [17]) is 80%; with Lolium perenne (LOLPE) (setting [18]) it was 90%.

Take `C=C(C)CNC(=O)CC1CC(=O)C(c2c(C)cc(-c3ncc(Br)cn3)cc2C)C1=O` (centres unmarked) [Compound B283]: the pest or weed control at 250 g/ha in the test with Avena fatua (AVEFA) (setting [3]) was 100%; in the test on Avena fatua (AVEFA) (setting [4]), 90%; in test [1] (setting [5]) it was 100%; in test [1] (setting [6]), 100%; in test [2] (setting [7]), 100%; in test [2] (setting [8]) it was 100%. In addition, the pest or weed control at 250 g/ha in the test on Lolium perenne (LOLPE) (setting [9]) and with Lolium perenne (LOLPE) (setting [10]) was 100% throughout.

Consider `Cc1cc(-c2ncc(Br)cn2)cc(C)c1C1C(=O)CC(CC(=O)N2CCOCC2)C1=O` (centres unmarked) [Compound B285], for which the pest or weed control at 250 g/ha amounted to 100% in the test on Avena fatua (AVEFA) (setting [3]); 90% in the test with Avena fatua (AVEFA) (setting [4]); 100% in test [1] (setting [5]); 90% in test [1] (setting [6]); 100% in test [2] (setting [7]); 100% in test [2] (setting [8]). The pest or weed control at 250 g/ha in the test with Lolium perenne (LOLPE) (setting [9]) and in the test on Lolium perenne (LOLPE) (setting [10]) was 100% each time.

`C=CCNC(=O)CC1CC(=O)C(c2c(C)cc(-c3ncc(Cl)cn3)cc2C)C1=O` (centres unmarked) [Compound B350]: the pest or weed control at 250 g/ha with Avena fatua (AVEFA) (post-emergence, 360 h, Rate 250 g/ha, post-emergence, visual assessment 15 DAA, 100%=total damage, 0%=no damage, read-out: Post-emergence herbicidal activity (percentage phytotoxicity) AVEFA POST) was 100%; in the test with Avena fatua (AVEFA) (pre-emergence, 480 h, Rate 250 g/ha, pre-emergence, visual assessment 20 DAA, 100%=total damage, 0%=no damage, read-out: Pre-emergence herbicidal activity (percentage phytotoxicity) AVEFA PRE), 90%; in test [1] (post-emergence, 360 h, Rate 250 g/ha, post-emergence, visual assessment 15 DAA, 100%=total damage, 0%=no damage, read-out: Post-emergence herbicidal activity (percentage phytotoxicity) ALOMY POST) it was 100%; in test [1] (pre-emergence, 480 h, Rate 250 g/ha, pre-emergence, visual assessment 20 DAA, 100%=total damage, 0%=no damage, read-out: Pre-emergence herbicidal activity (percentage phytotoxicity) ALOMY PRE) it was 100%; in test [2] (post-emergence, 360 h, Rate 250 g/ha, post-emergence, visual assessment 15 DAA, 100%=total damage, 0%=no damage, read-out: Post-emergence herbicidal activity (percentage phytotoxicity) ECHCG POST), 100%; in test [2] (pre-emergence, 480 h, Rate 250 g/ha, pre-emergence, visual assessment 20 DAA, 100%=total damage, 0%=no damage, read-out: Pre-emergence herbicidal activity (percentage phytotoxicity) ECHCG PRE) it was 100%. In addition, the pest or weed control at 250 g/ha in the test with Lolium perenne (LOLPE) (post-emergence, 360 h, Rate 250 g/ha, post-emergence, visual assessment 15 DAA, 100%=total damage, 0%=no damage, read-out: Post-emergence herbicidal activity (percentage phytotoxicity) LOLPE POST) turned out to be 100%; in the test with Lolium perenne (LOLPE) (pre-emergence, 480 h, Rate 250 g/ha, pre-emergence, visual assessment 20 DAA, 100%=total damage, 0%=no damage, read-out: Pre-emergence herbicidal activity (percentage phytotoxicity) LOLPE PRE), 100%.

Turning to `Cc1cc(C)c(C2C(=O)CC(CC(=O)NC3=NOC(C)(C)C3)C2=O)c(C)c1` (centres unmarked) [Compound B42], the pest or weed control at 250 g/ha in the test on Avena fatua (AVEFA) (setting [11]) was 60%; with Avena fatua (AVEFA) (setting [12]) it was 0%; in test [1] (setting [13]) it was 60%; in test [1] (setting [14]) it was 0%; in test [2] (setting [15]), 0%; in test [2] (setting [16]) it was 0%. Besides, the pest or weed control at 250 g/ha was 40% with Lolium perenne (LOLPE) (setting [17]) and 0% in the test on Lolium perenne (LOLPE) (setting [18]).

`C/C=C/c1cc(C)c(C2C(=O)CC(CC(=O)NCC3CC3)C2=O)c(CC)c1` (centres unmarked) [Compound B196]: the pest or weed control at 250 g/ha in the test on Avena fatua (AVEFA) (setting [3]) came out at 100%; with Avena fatua (AVEFA) (setting [4]) it was 80%; in test [1] (setting [5]), 100%; in test [1] (setting [6]), 100%; in test [2] (setting [7]), 100%; in test [2] (setting [8]) it was 100%. Further, the pest or weed control at 250 g/ha in the test on Lolium perenne (LOLPE) (setting [9]) and with Lolium perenne (LOLPE) (setting [10]) was 100% in each case.

On to `Cc1cc(C)c(C2C(=O)CC(CC(=O)NCc3cccc(C(F)(F)F)c3)C2=O)c(C)c1` (centres unmarked) [Compound A89], for which the pest or weed control at 250 g/ha in the test with Avena fatua (AVEFA) (setting [19]) came to 90%; in the test with Avena fatua (AVEFA) (setting [20]), 60%; in test [1] (setting [21]) it was 90%; in test [1] (setting [22]) it was 90%; in test [2] (setting [23]), 100%; in test [2] (setting [24]), 100%. The pest or weed control at 250 g/ha with Lolium perenne (LOLPE) (setting [25]) amounted to 100%; in the test with Lolium perenne (LOLPE) (setting [26]), 90%.

For the molecule `Cc1cc(-c2ncc(Cl)cc2F)cc(C)c1C1C(=O)CC(CC(=O)NC(C)c2ccc(F)cc2)C1=O` (centres unmarked) [Compound A124], the pest or weed control at 250 g/ha in the test on Avena fatua (AVEFA) (setting [19]) is 100%; with Avena fatua (AVEFA) (setting [20]), 80%; in test [1] (setting [21]) it was 90%; in test [1] (setting [22]), 70%; in test [2] (setting [23]), 100%; in test [2] (setting [24]), 90%. Besides, the pest or weed control at 250 g/ha with Lolium perenne (LOLPE) (setting [25]) came out at 100%; in the test on Lolium perenne (LOLPE) (setting [26]) it was 90%.

Regarding `C=CCCNC(=O)CC1CC(=O)C(c2c(C)cc(C)cc2C)C1=O` (centres unmarked) [Compound A94], the pest or weed control at 250 g/ha was 20% in the test with Avena fatua (AVEFA) (setting [20]); 90% in test [1] (setting [22]); 80% in test [2] (setting [23]); 60% in test [2] (setting [24]); 90% in the test on Lolium perenne (LOLPE) (setting [26]).
